# Publication PMC2766921 (Biochemistry, 2009)
# How the values were obtained:
# [1] = test system: purified bacterial succinyl-CoA synthetase (BSCS); assay: in-gel BN-PAGE GTP hydrolysis assay; assay type: biochemical, Escherichia coli; conditions: 8 mM GTP, 20 mM succinate, 0.5 mM CoA, 14 mM MgSO4, pH 7.8, room temperature
# [2] = test system: purified bacterial succinyl-CoA synthetase (BSCS); assay: in-gel BN-PAGE ATP hydrolysis assay; assay type: biochemical, Escherichia coli; conditions: 8 mM ATP, 20 mM succinate, 0.5 mM CoA, 14 mM MgSO4, pH 7.8, room temperature
# Sequence of purified bacterial succinyl-CoA synthetase (BSCS) (P0AGE9 2-289): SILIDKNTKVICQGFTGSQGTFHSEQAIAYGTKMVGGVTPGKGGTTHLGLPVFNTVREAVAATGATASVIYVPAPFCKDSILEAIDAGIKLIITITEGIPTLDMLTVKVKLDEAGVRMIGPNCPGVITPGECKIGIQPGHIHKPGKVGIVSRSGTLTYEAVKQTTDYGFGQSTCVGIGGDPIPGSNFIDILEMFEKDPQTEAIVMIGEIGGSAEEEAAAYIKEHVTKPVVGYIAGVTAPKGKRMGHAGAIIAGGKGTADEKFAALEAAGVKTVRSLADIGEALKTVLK
# Sequence of purified bacterial succinyl-CoA synthetase (BSCS) (P0A836 whole entry, further chain): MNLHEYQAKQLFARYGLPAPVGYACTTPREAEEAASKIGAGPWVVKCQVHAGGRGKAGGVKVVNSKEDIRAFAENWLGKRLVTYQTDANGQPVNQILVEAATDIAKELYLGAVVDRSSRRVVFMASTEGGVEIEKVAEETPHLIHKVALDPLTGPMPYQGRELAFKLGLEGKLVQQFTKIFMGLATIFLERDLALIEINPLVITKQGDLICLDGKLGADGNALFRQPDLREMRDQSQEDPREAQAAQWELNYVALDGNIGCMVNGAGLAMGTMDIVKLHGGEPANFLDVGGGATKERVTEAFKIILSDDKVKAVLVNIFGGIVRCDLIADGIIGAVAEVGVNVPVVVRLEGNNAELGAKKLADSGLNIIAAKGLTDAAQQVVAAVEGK
SMILES,in-gel BN-PAGE GTP hydrolysis assay (lead phosphate) [1],in-gel BN-PAGE ATP hydrolysis assay (lead phosphate) [2]
Nc1nc2c(ncn2[C@@H]2O[C@H](COP(=O)(O)OP(=O)(O)OP(=O)(O)O)[C@@H](O)[C@H]2O)c(=O)[nH]1 [GTP],ATP-dependent activity of BSCS was higher than the GTP-dependent activity,
Nc1ncnc2c1ncn2[C@@H]1O[C@H](COP(=O)(O)OP(=O)(O)OP(=O)(O)O)[C@@H](O)[C@H]1O [ATP],,ATP-dependent activity of BSCS was higher than the GTP-dependent activity
